Test results reported in PMC9181887, “In Vitro Antithrombotic, Hematological Toxicity, and Inhibitor Studies of Protocatechuic, Isovanillic, and p-Hydroxybenzoic Acids from Maclura tricuspidata (Carr.) Bur” (Molecules, 2022).
Where “and” joins values, the source holds several entries; their conditions need not be identical. Equal entries are not always repeated. Where two headings read alike, the source gives them in different places.

Legend:
human plasma [1] = assay: Coagulation assay, TT; assay type: biochemical; details: 50–100 μg
Description: (§1) A coagulation assay was performed to evaluate the prolongation potential of the compounds in blood coagulation by measuring APTT, PT, and TT, as previously described. After pretreatment of the compounds with human plasma for 10 min, APTT, PT, and TT were determined by a coagulometer (Thrombostat 1) manufactured by Behnk Elektronik, Germany.

platelet aggregation [2] = tested on: platelet aggregation; set-up: method as in PMID 20824965, PMID 9869276; details: ADP or collagen-induced platelet aggregation; cited from earlier work
[3] = tested on: platelet aggregation/activation in whole blood; assay: PFA-100 platelet function assay, collagen/epinephrine cartridge; assay type: cell-based; details: for Closure time: control 118.6 ± 2.1 s
Description: The effects of the compounds on platelet aggregation/activation and adherence in whole blood under conditions of high shear stress flow were evaluated using a collagen/epinephrine cartridge (Dade Behring, Marburg, Germany) and platelet function analyzer (PFA-100), as previously described. Blood samples were drawn from healthy donors using 3.8% (w/v) sodium citrate. Aliquots of whole blood were treated with different concentrations of compounds and incubated for 5 min at room temperature. Blood samples were added to a collagen/epinephrine cartridge, and the time required for occlusion of the aperture was measured using the analyzer and reported as the closure time. Saline-treated blood was used as a control.

[4] = tested on: fibrin clot network (Alexa Fluor 488 fibrinogen, thrombin); assay: Fibrin clot assay using a fluorescence microscope; assay type: biochemical, human; details: fluorescent fibrinogen and thrombin, 30 min
Description: Fibrin clots were prepared by mixing 2.6 μM human fibrinogen and 0.4 μM Alexa Fluor 488 fibrinogen with 0.25 U/mL of thrombin in 20 mM Tris-HCl (pH 7.4) in a glass-bottom dish and treated with compounds or 20 IU u-PA as previously described. The mixtures were incubated for 30 min at 37 °C in the dark. Fibrin clots were observed under a fluorescence microscope (Nikon, Eclipse TE 2000-U, Kyoto, Japan) and photographed. Fibrin clots pre-treated with saline (control group) or […] (positive control group). Quantitative analysis of the fluorescent fibrin clots was performed using the ImageJ 1.46 b image analysis software.

platelet aggregation [5] = tested on: platelet aggregation; set-up: method as in PMID 20824965, PMID 9869276; details: sodium arachidonate-induced platelet aggregation; cited from earlier work
human plasma [6] = assay: Coagulation assay, PT; assay type: biochemical; details: 50–100 μg
Description: as §1

[7] = tested on: thrombin-activated platelets; assay: Serotonin release assay; assay type: cell-based; details: p < 0.05
Description: Figure 7 Effect of PA, IVA, and 4-HA on granule secretion. Aliquots of washed platelets pre-treated with or without the compounds for 5 min were stimulated with 0.25 U/mL thrombin at 37 °C for 5 min. After stimulation, the platelets were centrifuged, and the supernatants were collected. Using these supernatants, ATP (A) or serotonin (B) release was determined according to the manufacturer’s instructions. Each value is the mean ± SD of triplicate measurements. # p < 0.01, compared to each control groups. * p < 0.05 and ** p < 0.01, compared to only thrombin-treated control groups. Thrombin, thrombin treated only; PA10-100, 10–100 μg of PA treated; IVA10-100, 10–100 μg of IVA treated; 4-HA10-100, 10–100 μg of 4-HA treated.
Aliquots of washed platelets (250 × 10^6/mL) pre-treated with the compounds for 5 min were activated with 0.25 U/mL of thrombin in the presence of 1 mM of Ca^2+ for 5 min at 37 °C, according to a previously described method, with slight modifications. After stimulation, the reaction solution was centrifuged at 4 °C and 12,000× g for 5 min, and the supernatant was collected for subsequent use. Serotonin release was determined using a serotonin enzyme-linked immunosorbent assay kit (Labor Diagnostika Nord GmbH & Co., Nordhorn, Germany), according to the manufacturer’s instructions.

diabetic rats = tested on: diabetic rats; set-up: method as in PMID 20824965, PMID 9869276; details: cited from earlier work
[8] = tested on: fibrin clot formation (fibrinogen, thrombin, CaCl2); assay: Fibrin clot assay; assay type: biochemical, Human; details: 100 μg
Description: The fibrin clot assay, as previously described, was performed to evaluate the improvement in blood circulation by the attenuation of fibrin formation. First, 1.5% fibrinogen, 0.5 U/mL of thrombin, and 5 mM CaCl2 in 20 mM Tris-HCl in a volume of 100 μL were added to different concentrations of compounds or 10–20 IU u-PA as PC 1–2. These prepared fibrin clot mixtures were incubated at 37 °C for 30 min. Each tube of the fibrin clot mixture was photographed, and the density of the clots was measured using the ImageJ 1.46 b image analysis software (National Institutes of Health, Bethesda, MD, USA). Inhibitory activity was calculated as follows:Inhibitory activity (%) = [1 − (density control without sample−density sample)/density control without sample] × 100

platelets = assay: Hematological study, platelet count by hemocytometer; assay type: cell-based; details: 10 min, vs control
Description: (§2) Figure 1 Blood cytotoxic effect of PA (A), IVA (B), and 4-HA (C). Aliquots of washed platelets (10^3/mL), erythrocytes (10^6/mL), and leukocytes (10^3/mL) were treated with or without the compounds for 10 min and cell number was determined by hemocytometer counts. Each value is the mean ± SD of triplicate measurements. * p < 0.05 and ** p < 0.01, compared to each control groups. 10–500, 10–100 μg of each compound treated.
(§3) Total white blood cells (leukocytes) and red blood cells (erythrocytes) were counted using a hemocytometer, as previously described. Blood was diluted 1:200 with Hayem’s fluid and the cells were counted in a loaded hemocytometer chamber. To count the blood platelets, blood was diluted in a ratio of 1:20 with a diluting fluid, and four large (1 mm^2) corner squares of the hemocytometer were counted under a light microscope. Aliquots of leukocytes (0.1 mL; 10^3/mL), erythrocytes (0.1 mL; 10^6/mL), and platelets (0.1 mL; 10^3/mL) were treated with or without the compounds for 10 min.

erythrocytes = assay: Hematological study, erythrocyte count by hemocytometer; assay type: cell-based; details: up to 200 μg/mL, 10 min, vs control
Description: as §2, §3

effect on platelet number (platelets; 10–50 μg/mL)	Compound	TT, fold of control (human plasma [1])	thrombin time (TT) (human plasma [1]; control 9.4 ± 0.2 s, p < 0.01) [s]	IC50 (platelet aggregation [2]) [µM]	Closure time ([3]; 10 μg) [s]	Closure time ([3]; 20 μg) [s]	Closure time, fold of control ([3]; 50 μg) [fold]	Closure time ([3]; 50 μg)	Closure time, fold of control ([3]; 100 μg) [fold]	Closure time ([3]; 100 μg)	fibrin network structure / clot density [4]	IC50 (platelet aggregation [5]) [µM]	PT, fold of control (human plasma [6])	prothrombin time (PT) (human plasma [6]; control 20.8 ± 0.7 s, p < 0.05) [s]	thrombin-stimulated serotonin secretion ([7]; 100 μg)	plasma glucose levels (diabetic rats)	inhibition of fibrin clot formation [8] [%]	effect on the number of erythrocytes (erythrocytes)	thrombin-stimulated serotonin secretion ([7]; 50–100 μg)	effect on platelet number (platelets; 10–100 μg/mL)
did not cause any effect	O=C(O)c1ccc(O)cc1 [4-HA, 4-hydroxybenzoic acid]	1.14–1.15 fold	10.7 to 10.8	1000 to 3400	121.2 ± 1.9	127.7 ± 3.1	1.13	134.6 s and 134.6 ± 4.5 s	1.24	147.3 s and 147.3 ± 5.8 s	morphological changes in the network and reduced fibrin clot density	300	1.25–1.26 fold	25.9 to 26.2	inhibited significantly	reducing plasma glucose levels in a dose-dependent manner	67.1 ± 1.3	–	–	–
did not cause any effect	COc1ccc(C(=O)O)cc1O [IVA, isovanillic acid]	–	–	–	118.5 ± 1.8	119.7 ± 2.8	–	123.5 ± 2.2 s	1.09	129.4 ± 3.4 s	morphological changes in the network and reduced fibrin clot density	–	–	–	–	–	55.6 ± 1.7	did not show any effect	inhibited significantly	–
–	O=C(O)c1ccc(O)c(O)c1 [PA, protocatechuic acid]	–	–	–	119.9 ± 2.4	122.1 ± 1.4	–	126.3 ± 2.9 s	1.13	133.7 ± 5.2 s	morphological changes in the network and reduced fibrin clot density	–	–	–	inhibited significantly	–	66.9 ± 3.3	did not show any effect	–	did not cause any effect
